The term IC50 denotes the concentration that gives 50% inhibition. Lower therefore signals higher potency.

For one assay, the target named is BRG-1 (Homo sapiens, UniProt P51532). Put plainly: ATPase catalytic activity of BRG-1 (ADP-Glo in vitro biochemical assay). Particulars: for BRG1 Max % Inhibition: Table 6. (In general: In ADP-Glo the light output rises with the ADP produced.)
A further assay deals with BRM (Homo sapiens, UniProt P51531). Nature of the assay: ATPase catalytic activity of BRM (ADP-Glo in vitro biochemical assay). To be noted: for BRM Max % Inhibition: Table 6.
BRM, sequence (P51531 whole entry): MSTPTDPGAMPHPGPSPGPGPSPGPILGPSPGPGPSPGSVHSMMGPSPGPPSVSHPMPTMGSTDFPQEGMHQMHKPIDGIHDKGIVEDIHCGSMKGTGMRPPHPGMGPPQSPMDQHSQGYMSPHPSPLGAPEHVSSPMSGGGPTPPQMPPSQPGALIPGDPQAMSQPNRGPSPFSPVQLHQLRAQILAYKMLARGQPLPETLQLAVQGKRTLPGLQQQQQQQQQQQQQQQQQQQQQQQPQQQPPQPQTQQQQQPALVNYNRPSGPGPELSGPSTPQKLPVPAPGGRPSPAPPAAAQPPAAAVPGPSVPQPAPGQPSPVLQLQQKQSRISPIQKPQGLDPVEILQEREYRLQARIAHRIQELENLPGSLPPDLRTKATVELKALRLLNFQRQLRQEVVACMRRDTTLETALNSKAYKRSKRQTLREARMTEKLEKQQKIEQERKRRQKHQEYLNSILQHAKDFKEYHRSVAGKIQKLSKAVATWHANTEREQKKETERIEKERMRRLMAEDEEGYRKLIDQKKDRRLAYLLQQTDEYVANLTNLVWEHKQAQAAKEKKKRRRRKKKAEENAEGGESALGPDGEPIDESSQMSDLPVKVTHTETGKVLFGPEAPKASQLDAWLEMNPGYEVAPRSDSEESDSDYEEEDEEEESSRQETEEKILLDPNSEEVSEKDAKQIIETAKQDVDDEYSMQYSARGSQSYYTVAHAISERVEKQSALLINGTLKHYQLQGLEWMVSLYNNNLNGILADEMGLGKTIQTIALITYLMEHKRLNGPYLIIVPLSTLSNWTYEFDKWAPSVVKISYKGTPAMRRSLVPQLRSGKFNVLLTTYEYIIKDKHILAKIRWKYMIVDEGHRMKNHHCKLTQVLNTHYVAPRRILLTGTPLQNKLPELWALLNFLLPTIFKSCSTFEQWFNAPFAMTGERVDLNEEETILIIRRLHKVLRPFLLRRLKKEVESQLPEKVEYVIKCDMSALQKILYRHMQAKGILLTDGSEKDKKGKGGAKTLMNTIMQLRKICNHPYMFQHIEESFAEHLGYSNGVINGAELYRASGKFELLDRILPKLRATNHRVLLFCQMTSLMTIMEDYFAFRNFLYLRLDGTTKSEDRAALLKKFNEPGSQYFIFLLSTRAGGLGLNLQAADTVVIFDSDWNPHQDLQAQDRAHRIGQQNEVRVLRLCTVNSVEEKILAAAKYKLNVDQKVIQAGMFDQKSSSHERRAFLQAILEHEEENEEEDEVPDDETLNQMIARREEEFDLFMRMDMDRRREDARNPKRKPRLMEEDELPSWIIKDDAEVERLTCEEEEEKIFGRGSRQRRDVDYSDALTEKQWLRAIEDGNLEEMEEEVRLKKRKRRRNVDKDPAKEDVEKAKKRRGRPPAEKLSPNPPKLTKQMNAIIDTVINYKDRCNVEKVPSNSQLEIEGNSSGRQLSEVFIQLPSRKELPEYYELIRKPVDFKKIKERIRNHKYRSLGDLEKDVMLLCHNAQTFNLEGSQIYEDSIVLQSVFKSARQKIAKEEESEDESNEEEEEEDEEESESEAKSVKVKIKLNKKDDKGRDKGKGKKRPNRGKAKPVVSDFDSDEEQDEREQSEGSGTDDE

BRG-1, sequence (P51532 whole entry): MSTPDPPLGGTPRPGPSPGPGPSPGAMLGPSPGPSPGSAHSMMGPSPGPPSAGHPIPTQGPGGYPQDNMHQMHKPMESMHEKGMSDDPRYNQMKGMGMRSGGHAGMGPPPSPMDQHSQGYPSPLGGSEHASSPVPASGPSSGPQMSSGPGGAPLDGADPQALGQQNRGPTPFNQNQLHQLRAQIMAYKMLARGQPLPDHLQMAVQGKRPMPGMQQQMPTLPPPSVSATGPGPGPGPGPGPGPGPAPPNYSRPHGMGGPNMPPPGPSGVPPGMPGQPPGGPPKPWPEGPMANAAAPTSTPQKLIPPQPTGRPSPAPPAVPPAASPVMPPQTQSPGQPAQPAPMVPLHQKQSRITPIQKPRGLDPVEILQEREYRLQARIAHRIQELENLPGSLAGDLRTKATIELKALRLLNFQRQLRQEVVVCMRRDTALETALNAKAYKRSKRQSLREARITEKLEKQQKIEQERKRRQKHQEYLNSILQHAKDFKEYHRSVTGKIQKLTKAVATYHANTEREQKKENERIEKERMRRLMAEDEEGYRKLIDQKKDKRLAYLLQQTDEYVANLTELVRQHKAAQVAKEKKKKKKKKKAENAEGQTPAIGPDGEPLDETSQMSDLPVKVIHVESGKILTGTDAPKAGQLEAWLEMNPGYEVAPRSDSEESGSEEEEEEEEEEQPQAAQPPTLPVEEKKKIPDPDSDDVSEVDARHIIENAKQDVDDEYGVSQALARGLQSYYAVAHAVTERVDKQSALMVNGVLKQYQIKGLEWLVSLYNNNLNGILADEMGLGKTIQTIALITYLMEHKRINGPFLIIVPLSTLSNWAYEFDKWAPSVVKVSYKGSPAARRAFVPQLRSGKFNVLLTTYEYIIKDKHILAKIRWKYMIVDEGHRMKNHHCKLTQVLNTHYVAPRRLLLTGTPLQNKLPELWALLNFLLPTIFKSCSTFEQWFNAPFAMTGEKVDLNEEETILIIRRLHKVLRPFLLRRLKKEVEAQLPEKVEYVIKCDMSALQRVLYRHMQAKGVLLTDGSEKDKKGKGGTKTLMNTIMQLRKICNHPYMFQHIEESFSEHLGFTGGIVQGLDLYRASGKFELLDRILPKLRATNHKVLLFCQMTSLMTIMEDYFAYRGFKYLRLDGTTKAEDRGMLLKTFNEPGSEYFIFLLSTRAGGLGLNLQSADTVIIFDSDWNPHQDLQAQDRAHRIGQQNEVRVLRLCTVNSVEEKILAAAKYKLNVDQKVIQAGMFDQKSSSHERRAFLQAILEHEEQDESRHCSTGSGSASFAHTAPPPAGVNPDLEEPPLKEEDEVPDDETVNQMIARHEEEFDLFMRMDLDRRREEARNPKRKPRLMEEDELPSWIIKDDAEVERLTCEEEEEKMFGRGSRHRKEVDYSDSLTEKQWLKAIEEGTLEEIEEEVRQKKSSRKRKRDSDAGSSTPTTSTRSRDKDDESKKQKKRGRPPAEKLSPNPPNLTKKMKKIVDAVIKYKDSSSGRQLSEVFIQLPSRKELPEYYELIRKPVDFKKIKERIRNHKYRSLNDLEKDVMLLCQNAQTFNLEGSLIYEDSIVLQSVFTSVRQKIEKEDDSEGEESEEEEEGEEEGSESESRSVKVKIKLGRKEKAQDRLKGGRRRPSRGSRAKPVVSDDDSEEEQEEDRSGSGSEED

For the compound `CC(=O)NCc1cccc(-c2cccc(-c3csc(NC(=O)CNC(=O)c4ccc(N)cc4)n3)c2)c1` [Compound 124, N-(2-((4-(3′-(acetamidomethyl)-[1,1′-biphenyl]-3-yl)thiazol-2-yl)amino)-2-oxoethyl)-4-aminobenzamide], on BRG-1, the 50% inhibitory concentration (IC50) lay in the range of 100 to 1000 nM and the “BRG1 Max % Inhibition” value was over 95%. At BRM, the IC50 lay within 100 to 1000 nM and the “BRM Max % Inhibition” value is over 95%.
As for `C[C@H](NC(=O)c1ccc(N)cc1)C(=O)Nc1nc(-c2cccc(-c3ccncc3)c2)cs1` [Compound 125, (S)-4-amino-N-(1-oxo-1-((4-(3-(pyridin-4-yl)phenyl)thiazol-2-yl)amino)propan-2-yl)benzamide], at BRG-1, the IC50 is under 100 nM and the “BRG1 Max % Inhibition” value was over 95%. On BRM, the IC50 is under 100 nM and the “BRM Max % Inhibition” value is recorded as over 95%.
In the case of `CNc1ccc(C(=O)NCC(=O)Nc2nc(-c3cccc(-c4ccncc4)c3)cs2)cc1` [Compound 126, 4-(methylamino)-N-(2-oxo-2-((4-(3-(pyridin-4-yl)phenyl)thiazol-2-yl)amino)ethyl)benzamide], at BRG-1, the concentration for half-maximal inhibition (IC50) was under 100 nM and the “BRG1 Max % Inhibition” value is on record as over 80%. Moreover, at BRM, the IC50 is under 100 nM and the “BRM Max % Inhibition” value is given as over 80%.
Consider `COc1ccc(-c2cccc(-c3csc(NC(=O)CNC(=O)c4ccc(N)cc4)n3)c2)cn1` [Compound 127, 4-amino-N-(2-((4-(3-(6-methoxypyridin-3-yl)phenyl)thiazol-2-yl)amino)-2-oxoethyl)benzamide], for which, on BRG-1, the IC50 lay within 100 to 1000 nM and the “BRG1 Max % Inhibition” value is recorded as over 80%. At BRM, the IC50 fell in the range of 100 to 1000 nM and the “BRM Max % Inhibition” value is over 90%.
As for `CSCC[C@H](NC(=O)c1ccc(N)cc1)C(=O)Nc1nc(-c2cccc(-c3nnco3)c2)cs1` [Compound 128, (S)-N-(1-((4-(3-(1,3,4-oxadiazol-2-yl)phenyl)thiazol-2-yl)amino)-4-(methylthio)-1-oxobutan-2-yl)-4-aminobenzamide], on BRG-1, the IC50 is under 100 nM and the “BRG1 Max % Inhibition” value is reported as over 95%. At BRM, the 50% inhibitory concentration (IC50) is under 100 nM and the “BRM Max % Inhibition” value is listed as over 95%.
With `CC(=O)N(C)Cc1cccc(-c2cccc(-c3csc(NC(=O)CNC(=O)c4ccc(N)cc4)n3)c2)c1` [Compound 129, 4-amino-N-(2-((4-(3′-((N-methylacetamido)methyl)-[1,1′-biphenyl]-3-yl)thiazol-2-yl)amino)-2-oxoethyl)benzamide], at BRG-1, the IC50 was 100 to 1000 nM and the “BRG1 Max % Inhibition” value is reported as over 95%. On BRM, the half-maximal inhibitory concentration (IC50) was in the range of 100 to 1000 nM and the “BRM Max % Inhibition” value is over 95%.
Take `CNC(=O)c1ccc(-c2cccc(-c3csc(NC(=O)CNC(=O)c4ccc(N)cc4)n3)c2)cc1` [Compound 130, 3′-(2-(2-(4-aminobenzamido)acetamido)thiazol-4-yl)-N-methyl-[1,1′-biphenyl]-4-carboxamide]: on BRG-1, the IC50 was in the range of 1000 to 10000 nM and the “BRG1 Max % Inhibition” value is reported as over 70%. Besides, on BRM, the IC50 fell in the range of 100 to 1000 nM and the “BRM Max % Inhibition” value was over 70%.
As to `CN(C)C(=O)c1cccc(-c2cccc(-c3csc(NC(=O)CNC(=O)c4ccc(N)cc4)n3)c2)c1` [Compound 131, 3′-(2-(2-(4-aminobenzamido)acetamido)thiazol-4-yl)-N,N-dimethyl-[1,1′-biphenyl]-3-carboxamide], at BRG-1, the half-inhibitory concentration (IC50) is under 100 nM and the “BRG1 Max % Inhibition” value is given as over 95%. In addition, at BRM, the IC50 is under 100 nM and the “BRM Max % Inhibition” value is over 95%.
Consider `CN(C)c1ccc(C(=O)NCC(=O)Nc2nc(-c3cccc(-c4ccncc4)c3)cs2)cc1` [Compound 132, 4-(dimethylamino)-N-(2-oxo-2-((4-(3-(pyridin-4-yl)phenyl)thiazol-2-yl)amino)ethyl)benzamide], for which, on BRG-1, the IC50 was under 100 nM and the “BRG1 Max % Inhibition” value is reported as over 70%. Besides, on BRM, the IC50 is under 100 nM and the “BRM Max % Inhibition” value was over 80%.
As to `Nc1ccc(C(=O)NCC(=O)Nc2nc(-c3cccc(-c4ccnc(N)c4)c3)cs2)cc1` [Compound 133, 4-amino-N-(2-((4-(3-(2-aminopyridin-4-yl)phenyl)thiazol-2-yl)amino)-2-oxoethyl)benzamide], on BRG-1, the IC50 is under 100 nM and the “BRG1 Max % Inhibition” value is over 95%. For the same compound, on BRM, the IC50 is under 100 nM and the “BRM Max % Inhibition” value is listed as over 95%.
For the compound `CS(=O)(=O)c1ccc(-c2cccc(-c3csc(NC(=O)CNC(=O)c4ccc(N)cc4)n3)c2)cc1` [Compound 134, 4-amino-N-(2-((4-(4′-(methylsulfonyl)-[1,1′-biphenyl]-3-yl)thiazol-2-yl)amino)-2-oxoethyl)benzamide], at BRG-1, the IC50 is 100 to 1000 nM and the “BRG1 Max % Inhibition” value is over 50%. Further, on BRM, the IC50 lay in the range of 100 to 1000 nM and the “BRM Max % Inhibition” value was over 50%.
In the case of `NCc1cccc(-c2cccc(-c3csc(NC(=O)CNC(=O)c4ccc(N)cc4)n3)c2)c1` [Compound 135, 4-amino-N-(2-((4-(3′-(aminomethyl)-[1,1′-biphenyl]-3-yl)thiazol-2-yl)amino)-2-oxoethyl)benzamide], at BRG-1, the IC50 was under 100 nM and the “BRG1 Max % Inhibition” value is over 95%. For the same compound, on BRM, the IC50 was under 100 nM and the “BRM Max % Inhibition” value was over 95%.
As for `Nc1ccc(C(=O)NCC(=O)Nc2nc(-c3cccc(-c4cccc(C(=O)O)c4)c3)cs2)cc1` [Compound 136, 3′-(2-(2-(4-aminobenzamido)acetamido)thiazol-4-yl)-[1,1′-biphenyl]-3-carboxylic acid], at BRG-1, the IC50 was 100 to 1000 nM and the “BRG1 Max % Inhibition” value was over 95%. At BRM, the IC50 is 100 to 1000 nM and the “BRM Max % Inhibition” value was over 95%.
For the compound `CN(C)C(=O)c1ccc(-c2cccc(-c3csc(NC(=O)CNC(=O)c4ccc(N)cc4)n3)c2)cc1` [Compound 137, 3′-(2-(2-(4-aminobenzamido)acetamido)thiazol-4-yl)-N,N-dimethyl-[1,1′-biphenyl]-4-carboxamide], on BRG-1, the IC50 was 100 to 1000 nM and the “BRG1 Max % Inhibition” value is over 95%. For the same compound, on BRM, the IC50 was 100 to 1000 nM and the “BRM Max % Inhibition” value is on record as over 90%.
With `CC(=O)N(C)Cc1ccc(-c2cccc(-c3csc(NC(=O)CNC(=O)c4ccc(N)cc4)n3)c2)cc1` [Compound 138, 4-amino-N-(2-((4-(4′-((N-methylacetamido)methyl)-[1,1′-biphenyl]-3-yl)thiazol-2-yl)amino)-2-oxoethyl)benzamide], at BRG-1, the IC50 was in the range of 100 to 1000 nM and the “BRG1 Max % Inhibition” value is reported as over 90%. Also, at BRM, the IC50 lay within 100 to 1000 nM and the “BRM Max % Inhibition” value is over 90%.
For `Nc1ccc(C(=O)NCC(=O)Nc2nc(-c3cccc(-c4ccc(O)cc4)c3)cs2)cc1` [Compound 139, 4-amino-N-(2-((4-(4′-hydroxy-[1,1′-biphenyl]-3-yl)thiazol-2-yl)amino)-2-oxoethyl)benzamide], on BRG-1, the IC50 was under 100 nM and the “BRG1 Max % Inhibition” value is over 95%. Also, on BRM, the IC50 was under 100 nM and the “BRM Max % Inhibition” value is on record as over 95%.
As to `Cn1ccc(-c2cccc(-c3csc(NC(=O)CNC(=O)c4ccc(N)cc4)n3)c2)cc1=O` [Compound 140, 4-amino-N-(2-((4-(3-(1-methyl-2-oxo-1,2-dihydropyridin-4-yl)phenyl)thiazol-2-yl)amino)-2-oxoethyl)benzamide], at BRG-1, the IC50 is 100 to 1000 nM and the “BRG1 Max % Inhibition” value is over 90%. Moreover, on BRM, the IC50 was in the range of 100 to 1000 nM and the “BRM Max % Inhibition” value is listed as over 95%.
